From paper PMC11259170, “Small-molecule probe for IBD risk variant GPR65 I231L alters cytokine signaling networks through positive allosteric modulation” (Science Advances, 2024)
Like-named read-outs stand apart in the source and are kept apart here.

Experiments:
hGPR65 = biological target: T1, hGPR65 (Homo sapiens, UniProt Q8IYL9); assay: cAMP detection in HeLa expression cell line, hGPR65; assay type: cell-based; details: for Emax: HeLa, read-out: hGPR Max Activity %; for cAMP production relative to BRD2813, hGPR65: pH 7.2
T1 construct: expressed in transfected cells; host or cells: HeLa (ATCC CCL-2), lentiviral transduction, pLX317
T1 sequence (Q8IYL9 whole entry): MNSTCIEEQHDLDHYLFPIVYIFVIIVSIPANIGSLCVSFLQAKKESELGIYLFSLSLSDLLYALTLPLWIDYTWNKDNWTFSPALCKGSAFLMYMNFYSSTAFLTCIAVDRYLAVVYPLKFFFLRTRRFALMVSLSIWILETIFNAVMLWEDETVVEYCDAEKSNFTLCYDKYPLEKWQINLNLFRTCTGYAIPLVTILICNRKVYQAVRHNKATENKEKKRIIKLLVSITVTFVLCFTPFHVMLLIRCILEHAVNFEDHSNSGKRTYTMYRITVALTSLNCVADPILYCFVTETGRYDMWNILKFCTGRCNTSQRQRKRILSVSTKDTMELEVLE
Description: (§1) HeLa stable expression cell lines were produced by lentiviral transduction. Briefly, lentiviral plasmids for each GPCR with a C-terminal V5 Tag ([…]) were made in a pLX317 backbone using competent Escherichia coli (New England Biolabs, C3050H). Lenti-X 293 T (Takara, 632810) cells were transfected with the lentiviral plasmids to produce virus. Low-passage HeLa cells (American Type Culture Collection, CCL-2) were then transduced with lentivirus. After 48 hours, HeLa cells were cultured under selection with puromycin (3 μg/ml) and allowed to recover and expand before storing stocks in liquid nitrogen.
(§2) cAMP was measured in cells using the Lance Ultra cAMP Kit. HeLa cells were cultured under puromycin (3 μg/ml) selection. One day before the experiment, cells were seeded in T75 flasks and allowed to adhere overnight. On the day of the experiment, cells were washed twice with Dulbecco’s PBS and lifted using prewarmed 1× versene solution (Gibco, 15040066). Cells were counted in HBSS (Gibco, 14025092) and then resuspended in stimulation buffer prepared according to the manufacturer’s instructions and adjusted to pH 7.2 using 1 M sodium hydroxide. Cells were added to the plate at a density of 1500 cells per well in white opaque 384-well assay ready microplates containing 100 nl of 10 mM compound in DMSO. Cells were stimulated for 30 min at RT, then lysed and incubated with detection reagents for 1 hour in the dark at RT. Plates were read on BMG Labtech PHERAstar FSX (excitation, 337 nm; emission, 620 and 665 nm). Data analysis was performed using GraphPad Prism.

mGPR65 = biological target: T2, mGPR65 (Mus musculus, UniProt Q61038); assay: cAMP detection in HeLa expression cell line, mGPR65; assay type: cell-based; details: for Emax: HeLa, read-out: mGPR Max Activity %; for Emax / mGPR Max Activity: relative to 100uM forskolin (100%) and DMSO (0%); for cAMP production relative to BRD2813, mGPR65: pH 7.2
T2 construct: expressed in transfected cells; host or cells: HeLa (ATCC CCL-2), lentiviral transduction, pLX317
T2 sequence (Q61038 whole entry): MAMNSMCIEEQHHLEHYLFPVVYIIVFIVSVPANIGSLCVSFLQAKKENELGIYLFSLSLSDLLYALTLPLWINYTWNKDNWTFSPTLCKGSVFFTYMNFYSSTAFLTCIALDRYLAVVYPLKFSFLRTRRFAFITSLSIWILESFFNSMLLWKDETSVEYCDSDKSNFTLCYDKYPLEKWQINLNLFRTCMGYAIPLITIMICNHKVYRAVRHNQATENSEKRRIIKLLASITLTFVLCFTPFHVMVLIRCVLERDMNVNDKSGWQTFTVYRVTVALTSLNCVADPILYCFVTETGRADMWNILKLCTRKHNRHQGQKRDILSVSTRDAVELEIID
Description: as §1, §2

[1] = 1st hGPR column pair, relative to 100uM forskolin (100%) and DMSO (0%), NA = no activity
[2] = 2nd hGPR column pair, relative to 100uM forskolin (100%) and DMSO (0%), NA = no activity
[3] = hGPR EC50 (uM), NA = no activity
[4] = 2nd mGPR column pair, NA = no activity
[5] = mGPR EC50 (uM), 2nd mGPR column pair, NA = no activity
[6] = mGPR EC50 (uM), NA = no activity
[7] = 1st hGPR column pair, NA = no activity, read-out: hGPR EC50
[8] = 2nd hGPR column pair, NA = no activity, read-out: hGPR EC50
[9] = 1st mGPR column pair, NA = no activity, read-out: mGPR EC50
[10] = 2nd mGPR column pair, NA = no activity, read-out: mGPR EC50
[11] = first pair, relative to 100uM forskolin (100%) and DMSO (0%)
[12] = SAR cAMP assay, first EC50/Max pair of hGPR columns, read-out: hGPR EC50
[13] = 3rd mGPR column pair, NA = no activity, read-out: mGPR EC50
[14] = SAR cAMP assay, first EC50/Max pair, read-out: mGPR EC50

| SMILES | Emax (hGPR65; [1]) [%] | Emax (hGPR65; [2]) [%] | Emax (mGPR65; [4]) [%] | Emax (mGPR65; NA = no activity) [%] | EC50 (hGPR65; [7]) [µM] | EC50 (hGPR65; [8]) [µM] | EC50 (mGPR65; [9]) [µM] | EC50 (mGPR65; [10]) [µM] | also measured |
| --- | --- | --- | --- | --- | --- | --- | --- | --- | --- |
| Cc1ccc(NC(=O)c2cnn3c(O)cc(-c4ccc(COC(C)C)cc4)nc23)cc1 [BRD5928] | 82.5 | 80 | 54.1 | 61.1 | – | – | – | – | EC50 (hGPR65; [3]): 0.271 µM; EC50 (hGPR65; hGPR EC50, NA = no activity): 0.629 µM; cAMP production relative to BRD2813, hGPR65 (hGPR65): induced high hGPR65 activity; EC50 (mGPR65; [5]): 0.494 µM; EC50 (mGPR65; [6]): 0.635 µM; cAMP production relative to BRD2813, mGPR65 (mGPR65): substantially increasing cAMP production |
| COCc1ccc(-c2cc(O)n3ncc(C(=O)Nc4ccc(C(=O)OC)cc4)c3n2)cc1 [BRD0592] | 68.9 | 68.2 | 57 | 64.1 | 1.27 | 1.25 | 0.82 | 0.563 | – |
| COCc1ccc(-c2cc(OC)n3ncc(C(=O)Nc4ccc(C)cc4)c3n2)cc1 [BRD2344] | – | – | – | 4.13 | – | – | 0.737 | – | – |
| Cc1ccc(NC(=O)c2cnn3c(O)cc(-c4cnc(N5CCOCC5)c(Cl)c4)nc23)cc1 [BRD5065] | 49.7 | 39.5 | 51.8 | 56.5 | 2.39 | 1.87 | 0.513 | 1.16 | – |
| Cc1ccc(NC(=O)c2cnn3c(O)cc(COc4ccccc4)nc23)cc1 [BRD6694] | 20.7 | 22.4 | 5.79 | – | 8.03 | 4.64 | – | 19.7 | – |
| Cc1cnc(NC(=O)c2cnn3c(O)cc(-c4ccc(COC(C)C)cc4)nc23)nc1 [BRD5076] | 72.4 | 69.9 | 56.3 | 59.9 | 2 | 1.64 | 1.14 | 1.8 | – |
| Cc1ccc(NC(=O)c2cnn3c(O)cc(-c4ccc(Cl)cc4)nc23)cc1 [BRD2007] | 79.1 | 81.4 | 22.7 | 24.9 | 0.409 | 0.247 | 0.644 | 0.64 | – |
| Cc1ccc(NC(=O)c2cnn3c(O)cc(-c4ccc(Oc5ccccc5)cc4)nc23)cc1 [BRD3067] | – | – | – | – | – | – | – | – | Emax (hGPR65; [11]): 36.3%; EC50 (hGPR65; [12]): 11.1 µM |
| Cc1ccc(NC(=O)c2cnn3c(O)cc(-c4ccc(-c5ccccc5O)cc4)nc23)cc1 [BRD1689] | 79 | 74.3 | 45.5 | 54 | 3.57 | 5.62 | 1.58 | 2.04 | – |
| CCN1CC(c2cc(O)n3ncc(C(=O)Nc4ccc(Cl)cc4)c3n2)CC1=O (stereo not drawn) [BRD8856] | – | – | – | 10.9 | – | – | 0.662 | – | – |
| Cc1[nH]c2ccccc2c1Cc1cc(O)n2ncc(C(=O)Nc3ccccc3)c2n1 [BRD5828] | – | – | 18.4 | 25.8 | – | – | 0.649 | 0.785 | – |
| COCc1ccc(-c2cc(O)n3ncc(C(=O)Nc4ccc(F)cc4)c3n2)cc1 [BRD3674] | 43.3 | – | 7.69 | – | 27.9 | – | – | 4.12 | – |
| COc1cccc(Cc2cc(O)n3ncc(C(=O)Nc4ccccc4)c3n2)c1 [BRD7897] | – | – | – | ~22.7 | – | – | 6.48 | – | – |
| Cc1ccc(NC(=O)c2cnn3c(O)cc(CCc4c(C)n[nH]c4C)nc23)cc1 [BRD5908] | – | – | – | 22.1 | – | – | 33 | – | – |
| Cc1ccc(NC(=O)c2cnn3c(O)cc(Cc4c[nH]c5ccccc45)nc23)cc1 [BRD2917] | – | – | – | 7.25 | – | – | 18.9 | – | – |
| Cc1ccc(NC(=O)c2cnn3c(O)cc(-c4ccc(F)cc4)nc23)cc1 [BRD1827] | 78 | 77.5 | 43.8 | 43.6 | 0.635 | 0.963 | 1.37 | 1.29 | – |
| COc1cccc(Cc2cc(O)n3ncc(C(=O)Nc4ccc(C)cc4)c3n2)c1 [BRD5386] | – | – | 16.4 | 39.5 | – | – | 2.01 | 2.17 | EC50 (hGPR65; NA = no activity, read-out: hGPR EC50): 1.96 µM; hGPR Max Activity (hGPR65; relative to 100uM forskolin (100%) and DMSO (0%), NA = no activity): 4.575%; EC50 (mGPR65; [13]): 0.425 µM; mGPR Max Activity (mGPR65; NA = no activity): 21.71% |

| SMILES | Emax (hGPR65; [1]) [%] | Emax (hGPR65; [2]) [%] | Emax (mGPR65; [4]) [%] | Emax (mGPR65; NA = no activity) [%] | EC50 (hGPR65; [7]) [µM] | EC50 (hGPR65; [8]) [µM] | EC50 (mGPR65; [9]) [µM] | EC50 (mGPR65; [10]) [µM] | also measured |
| --- | --- | --- | --- | --- | --- | --- | --- | --- | --- |
| COCc1ccc(-c2cc(O)n3nccc3n2)cc1 [BRD2453] | 11.7 | – | – | – | 18.6 | – | – | – | – |
| Cc1ccc(NC(=O)c2cnn3c(O)cc(-c4ccc(N5CCOCC5)nc4)nc23)cc1 [BRD5064] | 56.7 | 100 | 33.9 | 37.4 | 5.02 | 28.4 | 3.41 | 4.29 | – |
| COc1ccc(-c2cc(O)n3ncc(C(=O)Nc4ccc(C)cc4)c3n2)cc1 [BRD9965] | 73.8 | 66 | -39 | -56.6 | 0.734 | 0.924 | 24.2 | 32.3 | – |
| COc1cc(-c2cc(O)n3ncc(C(=O)Nc4ccc(C)cc4)c3n2)ccc1Cl [BRD5061] | 72.2 | 60.5 | 20.1 | 23.4 | 0.942 | 1.57 | 0.794 | – | – |
| Cc1ccc(NC(=O)c2cnn3c(O)cc(-c4ccc(N5CCCN(C)CC5)cc4)nc23)cc1 [BRD8425] | – | – | – | – | – | – | – | – | Emax (mGPR65; first pair): 65.4% |
| COCc1ccc(-c2cc(O)n3ncc(C(=O)Nc4ccc(OC)cc4)c3n2)cc1 [BRD5326] | 83 | 82.7 | 55.6 | 56.3 | – | – | – | – | EC50 (hGPR65; [3]): 1.26 µM; EC50 (hGPR65; hGPR EC50, NA = no activity): 0.903 µM; cAMP production relative to BRD2813, hGPR65 (hGPR65): little effect on cAMP production; EC50 (mGPR65; [5]): 1.26 µM; EC50 (mGPR65; [6]): 1.27 µM; cAMP production relative to BRD2813, mGPR65 (mGPR65): slight improvement in mGPR65 activity |
| Cc1ccc(NC(=O)c2cnn3c(O)cc(CCc4c(C)noc4C)nc23)cc1 [BRD8568] | 3.77 | – | – | – | 3.06 | – | – | – | – |
| CCOCc1ccc(-c2cc(O)n3ncc(C(=O)Nc4ccc(C)cc4)c3n2)cc1 [BRD6745] | 83.5 | 81.6 | 48.9 | 52.9 | 0.667 | 0.413 | 0.554 | 0.511 | – |
| Cc1ccc(NC(=O)c2cnn3c(O)cc(-c4ccc(-c5ccc(C(C)C)cc5)cc4)nc23)cc1 [BRD7984] | – | – | – | – | – | – | – | – | Emax (mGPR65; first pair): 12.4%; EC50 (mGPR65; [14]): 0.11 µM |
| CC(C)OCc1ccc(-c2cc(O)n3ncc(C(=O)Nc4ccccn4)c3n2)cc1 [BRD5074] | 84.1 | 75.9 | – | 78 | 7.02 | 8.96 | 9.32 | – | – |
| CCOC(=O)c1cnn2c(O)cc(C)nc12 [BRD9804] | 5.41 | – | – | – | 77.6 | – | – | – | – |
| Cc1ccc(NC(=O)c2cnn3c(O)cc(C(C)Cn4nccc4C)nc23)cc1 (stereo not drawn) [BRD4822] | – | – | 25.4 | 42 | – | – | 2.82 | 4.33 | EC50 (mGPR65; [13]): 1.19 µM; mGPR Max Activity (mGPR65; NA = no activity): 35.73% |
| COc1ccc(-c2ccn3ncc(C(=O)Nc4ccc(C)cc4)c3n2)cc1 [BRD6737] | 7.95 | – | – | – | 0.0844 | – | – | – | – |
| COCc1ccc(-c2cc(O)n3ncc(C(=O)N4CCS(=O)(=O)CC4)c3n2)cc1 [BRD3128] | 3.44 | – | – | – | 11 | – | – | – | – |
| COCc1ccc(-c2cc(O)n3ncc(C(=O)NCc4ccc(C)cc4)c3n2)cc1 [BRD4305] | – | – | 36.9 | 67.8 | – | – | 2.31 | 1.44 | EC50 (mGPR65; [13]): 1.07 µM; mGPR Max Activity (mGPR65; NA = no activity): 60.85% |
| Cc1ccc(NC(=O)c2cnn3c(O)cc(-c4ccc5ccccc5c4)nc23)cc1 [BRD7102] | 79.7 | 72.5 | 35.2 | 40.7 | 0.272 | 0.151 | 0.191 | 0.269 | potency and total cAMP production relative to BRD2813 (hGPR65; receptor not given): improved potency but had little effect on total cAMP production |
| Cc1ccc(NC(=O)c2cnn3c(O)cc(-c4ccc(-c5ccc(O)cc5)cc4)nc23)cc1 [BRD4475] | – | – | – | – | – | – | – | – | Emax (hGPR65; [11]): 22.6%; EC50 (hGPR65; [12]): 10.6 µM; Emax (mGPR65; first pair): 30.5%; EC50 (mGPR65; [14]): 1.66 µM |
